In patent publication US6548096B1, “Aspartyl dipeptide ester derivatives and sweeteners” (Ajinomoto Co., Inc., priority 1998, dated 2003):
Where two headings read alike, the source gives them in different places.

Experiments:
[1] = Sensory evaluation of sweetening potency relative to sugar; format: in vivo; details: for sweetening potency: Relative to sweetening potency of a 4% sucrose aqueous solution; for Sweetening potency (relative to sugar): times that of sugar, sensory evaluation
Source text: For example, the sweetening potency of N-[N-[3(3-methyl-4-hydroxyphenyl)propyl]-L-α-aspartyl]-L-phenylalanine 1-methyl ester was approximately 35,000 times that of sugar; that of N-[N-[3-(2-hydroxy-4-methylphenyl)propyl]-L-α-aspartyl]-L-α-phenylalanine 1-methyl ester was approximately 30,000 times that of sugar; that of N-[N-[3-(3-hydroxy-4-methoxyphenyl)propyl]-L-α-aspartyl]-L-phenylalanine 1-methyl ester was approximately 20,000 times that of sugar; that of N-[N-[3-(2-hydroxy-4-methoxyphenyl)propyl]-L-α-aspartyl]-L-phenylalanine 1-methyl ester was approximately 20,000 times that of sugar; that of N-[N-[3-(3-hydroxy-4-methylphenyl)propyl]-L-α-aspartyl]-L-phenylalanine 1-methyl ester was approximately 15,000 times that of sugar; that of N-(N-(3-(3-hydroxyphenyl)propyl]-L-α-aspartyl]-L-phenylalanine 1-methyl ester was approximately 8,000 times that of sugar; that of N-[N-(3-(4-methoxyphenyl)propyl]-L-α-aspartyl]-L-phenylalanine 1-methyl ester was approximately 6,500 times that of sugar; and that of N-(N-[3-(3-hydroxy-4-methoxyphenyl)propyl]-L-α-aspartyl]-L-tyrosine 1-methyl ester was approximately 16,000 times that of sugar.
The structures and the results of the sensory evaluation of aspartyl dipeptide derivatives represented by formula (2) are shown in Table 1. [drawing 3]

[2] = as reported in WO 94/11391 (U.S. Pat. No. 5,480,668); cited from earlier work

| SMILES | sweetening potency [1] | Sweetening potency (relative to sugar) [1] | also measured |
| --- | --- | --- | --- |
| COC(=O)[C@H](Cc1ccccc1)NC(=O)[C@H](CC(=O)O)NCCCc1ccc(OC)cc1OC [Compound 14, N-[N-[3-(2,4-dimethoxyphenyl)propyl]-L-α-aspartyl]-L-phenylalanine 1-methyl ester] | 4000 | 4,000 times | – |
| COC(=O)[C@H](Cc1ccccc1)NC(=O)[C@H](CC(=O)O)NCCCc1ccc(OCCO)cc1 [Compound 20, N-[N-[3-(4-(2-Hydroxyethoxy)phenyl)propyl]-L-α-aspartyl]-L-phenylalanine 1-Methyl Ester] | 1000 | 1,000 times | – |
| COC(=O)[C@H](Cc1ccccc1)NC(=O)[C@H](CC(=O)O)NCCCc1ccc(C)cc1O [Compound 13, N-[N-[3-(2-hydroxy-4-methylphenyl)propyl]-L-α-aspartyl]-L-phenylalanine 1-methyl ester] | 30000 | – | Sweetening potency (relative to sugar) ([1]; listed as Example 14): 30,000 times; Sweetening potency (relative to sugar) ([1]; listed as N-[N-[3-(2-hydroxy-4-methylphenyl)propyl]-L-α-aspartyl]-L-α-phenylalanine 1-meth): approximately 30,000 times |
| COC(=O)[C@H](Cc1ccccc1)NC(=O)[C@H](CC(=O)O)NCCCc1cc(OC)ccc1O [Compound 12, N-[N-[3-(2-hydroxy-5-methoxyphenyl)propyl]-L-α-aspartyl]-L-phenylalanine 1-methyl ester] | 1500 | 1,500 times | – |
| COC(=O)[C@H](Cc1ccccc1)NC(=O)[C@H](CC(=O)O)NCCCc1cccc(O)c1 [Compound 7, N-[N-[3-(3-hydroxyphenyl)propyl]-L-α-aspartyl]-L-phenylalanine 1-methyl ester] | 8000 | approximately 8,000 times | Sweetening potency (relative to sugar) ([1]; listed as Example 8): 8,000 times |
| COC(=O)[C@H](Cc1ccccc1)NC(=O)[C@H](CC(=O)O)NCCCc1cccc(OC)c1 [Compound 8, N-[N-[3-(3-Methoxyphenyl)propyl]-L-α-aspartyl]-L-phenylalanine 1-Methyl Ester] | 3500 | 3,500 times | – |
| COC(=O)[C@H](Cc1ccccc1)NC(=O)[C@H](CC(=O)O)NCCCc1ccc(OC)c(O)c1 | – | approximately 20,000 times | – |
| COC(=O)[C@H](Cc1ccccc1)NC(=O)[C@H](CC(=O)O)NCCCc1ccc(OC)c(OC)c1 [Compound 2, N-[N-[3-(3,4-dimethoxyphenyl)propyl]-L-α-aspartyl]-L-phenylalanine 1-methyl ester] | 2500 | 2,500 times | – |
| CCOc1cc(OC)ccc1CCCN[C@@H](CC(=O)O)C(=O)N[C@@H](Cc1ccccc1)C(=O)OC [Compound 15, N-[N-[3-(2-Ethoxy-4-methoxyphenyl)propyl]-L-α-aspartyl]-L-phenylalanine 1-Methyl Ester] | 2500 | 2,500 times | – |
| COC(=O)[C@H](Cc1ccccc1)NC(=O)[C@H](CC(=O)O)NCCCc1ccc(O)c(C)c1 [Compound 16, N-[N-[3-(3-methyl-4-hydroxyphenyl)propyl]-L-α-aspartyl]-L-phenylalanine 1-methyl ester] | 35000 | approximately 35,000 times | Sweetening potency (relative to sugar) ([1]; listed as Example 17): 35,000 times |
| COC(=O)[C@H](Cc1ccccc1)NC(=O)[C@H](CC(=O)O)NCCCc1ccc(C)c(O)c1 | – | approximately 15,000 times | – |
| COC(=O)[C@H](Cc1ccccc1)NC(=O)[C@H](CC(=O)O)NCCCc1ccc(O)c(OC)c1 [N-[N-[3-(3-methoxy-4-hydroxyphenyl)propyl]-L-α-aspartyl]-L-phenylalanine 1-methyl ester] | – | – | sweetening potency [2]: 2,500 times that of sugar |
| COC(=O)[C@H](Cc1ccccc1)NC(=O)[C@H](CC(=O)O)NCCCc1cccc(OC)c1O [Compound 11, N-[N-[3-(2-hydroxy-3-methoxyphenyl)propyl]-L-α-aspartyl]-L-phenylalanine 1-methyl ester] | 10000 | 10,000 times | – |
| CCOc1ccc(CCCN[C@@H](CC(=O)O)C(=O)N[C@@H](Cc2ccccc2)C(=O)OC)cc1 [Compound 6, N-[N-[3-(4-Ethoxyphenyl)propyl]-L-α-aspartyl]-L-phenylalanine 1-Methyl Ester] | 1500 | 1,500 times | – |
| COC(=O)[C@H](Cc1ccccc1)NC(=O)[C@H](CC(=O)O)NCCCc1ccc(O)cc1 [Compound 4, N-[N-[3-(4-hydroxyphenyl)propyl]-L-α-aspartyl]-L-phenylalanine 1-methyl ester] | 5000 | 5,000 times | – |
| COC(=O)[C@H](Cc1ccccc1)NC(=O)[C@H](CC(=O)O)NCCCc1ccc(OC)cc1 [Compound 5, N-[N-[3-(4-methoxyphenyl)propyl]-L-α-aspartyl]-L-phenylalanine 1-methyl ester] | 6500 | – | Sweetening potency (relative to sugar) ([1]; listed as Example 5): 6,500 times; Sweetening potency (relative to sugar) ([1]; listed as N-[N-(3-(4-methoxyphenyl)propyl]-L-α-aspartyl]-L-phenylalanine 1-methyl ester)): approximately 6,500 times |
| COC(=O)[C@H](Cc1ccccc1)NC(=O)[C@H](CC(=O)O)NCCC(C)(C)C [N-[N-(3,3-dimethylbutyl)-L-α-aspartyl]-L-phenylalanine 1-methyl ester] | – | – | sweetening potency [2]: 10,000 times that of sugar |
| COC(=O)[C@H](Cc1ccccc1)NC(=O)[C@H](CC(=O)O)NCCCc1ccccc1 [N-[N-(3-phenylpropyl)-L-α-aspartyl]-L-phenylalanine-1-methyl ester] | – | – | sweetening potency [2]: 1,500 times that of sugar |
| COC(=O)[C@H](Cc1ccccc1)NC(=O)[C@H](CC(=O)O)NCCCc1ccc(C)c(O)c1 [Compound 17, N-[N-[3-(3-hydroxy-4-methylphenyl)propyl]-L-α-aspartyl]-L-phenylalanine 1-methyl ester] | 15000 | – | Sweetening potency (relative to sugar) ([1]; listed as Example 18): 15,000 times |
| COC(=O)[C@H](Cc1ccccc1)NC(=O)[C@H](CC(=O)O)NCCCc1cc(OC)cc(OC)c1 [Compound 19, N-[N-[3-(3,5-dimethoxyphenyl)propyl]-L-α-aspartyl]-L-phenylalanine 1-methyl ester] | 800 | 800 times | – |
| COC(=O)[C@H](Cc1ccccc1)NC(=O)[C@H](CC(=O)O)NCCCc1ccc(OC)c(C)c1 [Compound 18, N-[N-[3-(3-methyl-4-methoxyphenyl)propyl]-L-α-aspartyl]-L-phenylalanine 1-methyl ester] | 8000 | 8,000 times | – |
| COC(=O)[C@H](Cc1ccc(O)cc1)NC(=O)[C@H](CC(=O)O)NCCCc1ccc(OC)c(O)c1 [Compound 9, N-[N-[3-(3-hydroxy-4-methoxyphenyl)propyl]-L-α-aspartyl]-L-tyrosine 1-methyl ester] | 16000 | approximately 16,000 times | Sweetening potency (relative to sugar) ([1]; listed as Example 10): 16,000 times |
| COC(=O)[C@H](Cc1ccccc1)NC(=O)[C@H](CC(=O)O)NCCCc1ccc(OC)cc1O | – | approximately 20,000 times | – |
| COC(=O)[C@H](Cc1ccccc1)NC(=O)[C@H](CC(=O)O)NCCCc1ccc(C)cc1 [Compound 21, N-[N-[3-(4-Methylphenyl)propyl]-L-α-aspartyl]-L-phenylalanine 1-Methyl Ester] | 4000 | 4,000 times | – |
| COC(=O)[C@H](Cc1ccccc1)NC(=O)[C@H](CC(=O)O)NCCCc1ccc2c(c1)OCO2 [Compound 3, N-[N-[3-(3,4-methylenedioxyphenyl)propyl]-L-α-aspartyl]-L-phenylalanine 1-methyl ester] | 5000 | 5,000 times | – |
| COC(=O)[C@H](Cc1ccccc1)NC(=O)[C@H](CC(=O)O)NCCCc1ccc(OC)cc1O [Compound 10, N-[N-[3-(2-hydroxy-4-methoxyphenyl)propyl]-L-α-aspartyl]-L-phenylalanine 1-methyl ester] | 20000 | – | Sweetening potency (relative to sugar) ([1]; listed as Example 11): 20,000 times |
| COC(=O)[C@H](Cc1ccccc1)NC(=O)[C@H](CC(=O)O)NCCCc1ccc(OC)c(O)c1 [Compound 1, N-[N-[3-(3-hydroxy-4-methoxyphenyl)propyl]-L-α-aspartyl]-L-phenylalanine 1-methyl ester] | 20000 | – | Sweetening potency (relative to sugar) ([1]; listed as Example 1): 20,000 times |
